# Assay results reported in US4197407A, “Prostenoic acids and esters” (American Cyanamid Company, priority 1977, dated 1980).
# Key:
# [1] = system: bronchospasms elicited by 5-hydroxytryptamine; assay: Bronchodilator activity (Konzett procedure) against 5-hydroxytryptamine; assay type: in vivo, guinea pigs; conditions: Cavia porcellus; three logarithmic cumulative intravenous doses; spasmogen 5-hydroxytryptamine i.v.
# Method: (§1) Bronchodilator activity is determined in guinea pigs against bronchospasms elicited by intravenous injections of 5-hydroxytryptamine, histamine or acetylcholine by the Konzett procedure. [See J. Lulling, P. Lievens, F. El Sayed and J. Prignot, Arzeneimittel-Forschung, 18, 995 (1968).] In Table D, bronchodilator activity for representative compounds of this invention against one or more of the three spasmogenic agents is expressed as an ED50 determined from the results obtained with three logarithmic cumulative intravenous doses.
# [2] = system: bronchospasms elicited by acetylcholine; assay: Bronchodilator activity (Konzett procedure) against acetylcholine; assay type: in vivo, guinea pigs; conditions: Cavia porcellus; three logarithmic cumulative intravenous doses; spasmogen acetylcholine i.v.
# Method: as §1
# [3] = system: adenosine diphosphate induced platelet aggregation; assay: Inhibition of platelet aggregation in vitro, adenosine diphosphate induced; assay type: cell-based, Human; set-up: key: (-): Inhibition; (+): No inhibition
# Excerpt: (§2) It is well known that platelet aggregation inhibitors may be useful as anti-thrombotic drugs. Inhibition of platelet aggregation can be conveniently measured in vitro by monitoring changes in optical density and/or light transmission in platelet rich plasma upon addition of suitable aggregating agents such as adenosine diphosphate, epinephrine, thrombin or collagen. Alternatively, platelet aggregation can be measured in vitro using platelet rich plasma obtained at various time intervales from animals given inhibitors by an oral or parenteral route.
# (§3) Human […] is incubated with modified Tyrode's solution in a proportion of 40-50% human […]. The test compounds are added at varying concentrations and after 5 minutes incubation, an aggregating agent such as adenosine diphosphate or collagen is added. The change in optical density (light transmission) is monitored by eye and inhibition is recorded as a (-) or lack of inhibition is recorded as a (+). Test compounds are considered active if they inhibit adenosine diphosphate or collagen induced aggregation at a concentration of 25 mcg/ml or less within 5-10 minutes.
# [4] = system: collagen induced platelet aggregation; assay: Inhibition of platelet aggregation in vitro, collagen induced; assay type: cell-based, Human; set-up: key: (-): Inhibition; (+): No inhibition
# Excerpt: as §2, §3
# [5] = system: mean arterial blood pressure; assay: Hypotensive activity in anesthetized rats; assay type: in vivo, Male Wistar strain rats; conditions: intravenous infusion over one minute
# Method: This procedure is a modification of the technique described by Pike, et al., Prostaglandins, Nobel Symposium 2, Stockholm, June, 1966, pg. 165.
# Male Wistar strain rats (Royal Hart Farms) averaging approximately 250 g in weight are fastened to rat boards in a supine position by means of canvas vests and limb ties. The animals are anesthetized with a 900 mg/kg intraperitoneal dose of urethane. The left carotid artery is cannulated with polyethylene 50 tubing to measure arterial blood pressure and the left external jugular vein is cannulated with polyethylene 50 tubing for drug infusion. The animals are allowed to equilibrate for 15-30 minutes. The test compound is infused in 0.5 ml of saline, over a one minute period, at the indicated dose level, using a Harvard model 940 infusion pump and a 6 cc syringe at speed 5. Each drug dose is flushed with 0.4 ml of saline. The mean arterial blood pressure is measured before and after drug administration using a Statham model P23Db pressure transducer and a Brush model 260 recorder. The percent depression in mean arterial blood pressure and the duration of at least a 10% depression induced by representative compounds of this invention are recorded in Table C.
# [6] = system: respiratory depression produced by arachidonate; assay: Inhibition of respiratory depression produced by arachidonate in mice, in vivo; set-up: species or system Swiss, male, albino mice; conditions: 2 hours before 50 mg/kg i.v. sodium arachidonate
# Method: Swiss, male, albino mice, weighing about 20 g, are placed in control and drug groups, each with 4-6 mice and fasted. The drug mice are dosed with 50, 25, 10, or 1 mg/kg of a test compound suspended in volumes of 0.5, 0.25, or 0.10 ml of 2% starch solution. Control animals receive starch solution alone. After 2 hours all the mice are challenged with an intravenous dose of 50 mg/kg of sodium arachidonate in a volume of 0.2 ml, by tail vein. The onset of effect and duration of respiratory depression and recovery or death is quantitated. The percent inhibition of respiratory depression is computed from the mean of the drug group and the mean of the control group. Compounds giving 30% or more inhibition at 25 mg/kg or less are considered active.
# [7] = system: bronchospasms elicited by histamine; assay: Bronchodilator activity (Konzett procedure) against histamine; assay type: in vivo, guinea pigs; conditions: Cavia porcellus; three logarithmic cumulative intravenous doses; spasmogen histamine i.v.
# Method: as §1
smiles,measurement,setting,value
"CCCC[C@H]1CCC[C@@]1(O)/C=C/[C@H]1CCC(=O)[C@@H]1CCCCCCC(=O)O (relative stereo) [nat-15S,16S(and ent-15R,16R)-15-Hydroxy-9-oxo-15,16-trimethylene-13-trans-prosenoic Acid]",ED50,[1],0.112 µg/kg
same,ED50,[2],0.413 µg/kg
"CCCCC1CCCC1(O)/C=C/C1C(O)CC(=O)C1C/C=C\CCCC(=O)O [nat-15S,16R(and ent-15R,16S) and nat-15R,16S-(and ent-15S,16R)-11α,15-Dihydroxy-9-oxo-15,16-trimethylene-13-trans-5-cis-prostadienoic Acid]","Inhibition of Platelet Aggregation - In Vitro, Adenosine Diphosphate",[3]; drug concentration 25 μg/ml,(+)
same,"Inhibition of Platelet Aggregation - In Vitro, Adenosine Diphosphate",[3]; drug concentration 250 μg/ml,(-)
same,"Inhibition of Platelet Aggregation - In Vitro, Collagen",[4]; drug concentration 250 μg/ml,(+)
same,Duration in Minutes of at Least 10% Depression,[5]; dose 1.7 mg/kg,> 10 min
same,Percent Depression of Mean Arterial Blood Pressure,[5]; dose 1.7 mg/kg,-47%
"O=C(O)CCCCCC[C@H]1C(=O)CC[C@@H]1/C=C/C1=CCCCC1 (relative stereo) [nat(and ent)-9-oxo-15,16-Tetramethylene-17,18,19,20-tetranor-15,13-trans-prostadienoic Acid]","Inhibition of Platelet Aggregation - In Vitro, Adenosine Diphosphate",[3]; drug concentration 25 μg/ml,(-)
same,"Inhibition of Platelet Aggregation - In Vitro, Adenosine Diphosphate",[3]; drug concentration 250 μg/ml,(-)
same,"Inhibition of Platelet Aggregation - In Vitro, Collagen",[4]; drug concentration 25 μg/ml,(-)
same,"Inhibition of Platelet Aggregation - In Vitro, Collagen",[4]; drug concentration 250 μg/ml,(-)
same,"Inhibition of Respiratory Depression - In Vivo, Percent Inhibition",[6]; 25 mg/kg,28%
"CCCCC1CCCC1(O)/C=C/C1CCC(=O)C1CCCCCCC(=O)OCC [Ethyl nat-15S,16R(and ent-15R,16S)-15-hydroxy-9-oxo-15,16-trimethylene-13-trans-prostenoate and Ethyl nat-15R,16S(and ent-15S,16R)-15-hydroxy-9-oxo-15,16-trimethylene-13-trans-prostenoate]",Duration in Minutes of at Least 10% Depression,[5]; dose 1.9 mg/kg,7 min
same,Percent Depression of Mean Arterial Blood Pressure,[5]; dose 1.9 mg/kg,-18%
"O=C(O)CCCCCC[C@H]1C(=O)CC[C@@H]1/C=C/C1(O)CCCCC1 (relative stereo) [nat(and ent)-15-Hydroxy-9-oxo-15,16-tetramethylene-17,18,19,20-tetranor-13-trans-prostenoic Acid]","Inhibition of Platelet Aggregation - In Vitro, Adenosine Diphosphate",[3]; drug concentration 0.25 μg/ml,(+)
same,"Inhibition of Platelet Aggregation - In Vitro, Adenosine Diphosphate",[3]; drug concentration 2.5 μg/ml,(+)
same,"Inhibition of Platelet Aggregation - In Vitro, Adenosine Diphosphate",[3]; drug concentration 25 μg/ml,(-)
same,"Inhibition of Platelet Aggregation - In Vitro, Adenosine Diphosphate",[3]; drug concentration 250 μg/ml,(-)
same,"Inhibition of Platelet Aggregation - In Vitro, Collagen",[4]; drug concentration 0.25 μg/ml,(+)
same,"Inhibition of Platelet Aggregation - In Vitro, Collagen",[4]; drug concentration 2.5 μg/ml,(+)
same,"Inhibition of Platelet Aggregation - In Vitro, Collagen",[4]; drug concentration 25 μg/ml,(-)
same,"Inhibition of Platelet Aggregation - In Vitro, Collagen",[4]; drug concentration 250 μg/ml,(-)
same,"Inhibition of Respiratory Depression - In Vivo, Percent Inhibition",[6]; 1 mg/kg,33%
same,Duration in Minutes of at Least 10% Depression,[5]; dose 1.8 mg/kg,4 min
same,Percent Depression of Mean Arterial Blood Pressure,[5]; dose 1.8 mg/kg,-9%
"O=C(O)CCC/C=C\C[C@H]1C(=O)C[C@@H](O)[C@@H]1/C=C/C1(O)CCCCC1 (relative stereo) [nat(and ent)-11α,15-Dihydroxy-9-oxo-15,16-tetramethylene-17,18,19,20-tetranor-5-cis,13-trans-prostadienoic Acid]","Inhibition of Platelet Aggregation - In Vitro, Adenosine Diphosphate",[3]; drug concentration 0.25 μg/ml,(+)
same,"Inhibition of Platelet Aggregation - In Vitro, Adenosine Diphosphate",[3]; drug concentration 2.5 μg/ml,(-)
same,"Inhibition of Platelet Aggregation - In Vitro, Adenosine Diphosphate",[3]; drug concentration 25 μg/ml,(-)
same,"Inhibition of Platelet Aggregation - In Vitro, Adenosine Diphosphate",[3]; drug concentration 250 μg/ml,(-)
same,"Inhibition of Platelet Aggregation - In Vitro, Collagen",[4]; drug concentration 0.25 μg/ml,(+)
same,"Inhibition of Platelet Aggregation - In Vitro, Collagen",[4]; drug concentration 2.5 μg/ml,(-)
same,"Inhibition of Platelet Aggregation - In Vitro, Collagen",[4]; drug concentration 25 μg/ml,(-)
same,"Inhibition of Platelet Aggregation - In Vitro, Collagen",[4]; drug concentration 250 μg/ml,(-)
same,"Inhibition of Respiratory Depression - In Vivo, Percent Inhibition",[6]; 10 mg/kg,6%
same,"Inhibition of Respiratory Depression - In Vivo, Percent Inhibition",[6]; 25 mg/kg,14%
same,Duration in Minutes of at Least 10% Depression,[5]; dose 2.2 mg/kg,23 min
same,Percent Depression of Mean Arterial Blood Pressure,[5]; dose 2.2 mg/kg,-31%
same,ED50,[2],0.115 µg/kg
"O=C(O)CCCCCC[C@H]1C(=O)C[C@@H](O)[C@@H]1/C=C/C1(O)CCCCC1 (relative stereo) [nat(and ent)-11α,15-Dihydroxy-9-oxo-15,16-tetramethylene-17,18,19,20-tetranor-13-trans-prostenoic Acid]","Inhibition of Platelet Aggregation - In Vitro, Adenosine Diphosphate",[3]; drug concentration 0.25 μg/ml,(+)
same,"Inhibition of Platelet Aggregation - In Vitro, Adenosine Diphosphate",[3]; drug concentration 2.5 μg/ml,(-)
same,"Inhibition of Platelet Aggregation - In Vitro, Adenosine Diphosphate",[3]; drug concentration 25 μg/ml,(-)
same,"Inhibition of Platelet Aggregation - In Vitro, Adenosine Diphosphate",[3]; drug concentration 250 μg/ml,(-)
same,"Inhibition of Platelet Aggregation - In Vitro, Collagen",[4]; drug concentration 0.25 μg/ml,(+)
same,"Inhibition of Platelet Aggregation - In Vitro, Collagen",[4]; drug concentration 2.5 μg/ml,(-)
same,"Inhibition of Platelet Aggregation - In Vitro, Collagen",[4]; drug concentration 25 μg/ml,(-)
same,"Inhibition of Platelet Aggregation - In Vitro, Collagen",[4]; drug concentration 250 μg/ml,(-)
same,Duration in Minutes of at Least 10% Depression,[5]; dose 2.1 mg/kg,16 min
same,Percent Depression of Mean Arterial Blood Pressure,[5]; dose 2.1 mg/kg,-39%
"O=C(O)CCC/C=C\C[C@H]1C(=O)C=C[C@@H]1/C=C/C1(O)CCCCC1 (relative stereo) [nat(and ent)-15-Hydroxy-9-oxo-15,16-tetramethylene-17,18,19,20-tetranor-13-trans,5-cis,10-prostatrienoic acid]","Inhibition of Platelet Aggregation - In Vitro, Adenosine Diphosphate",[3]; drug concentration 25 μg/ml,(+)
same,"Inhibition of Platelet Aggregation - In Vitro, Adenosine Diphosphate",[3]; drug concentration 250 μg/ml,(-)
same,"Inhibition of Platelet Aggregation - In Vitro, Collagen",[4]; drug concentration 25 μg/ml,(+)
same,"Inhibition of Platelet Aggregation - In Vitro, Collagen",[4]; drug concentration 250 μg/ml,(-)
same,ED50,[1],> 3.2 µg/kg
same,ED50,[7],0.632 µg/kg
same,ED50,[2],> 3.2 µg/kg
"CCCC[C@H]1CCC[C@@]1(O)/C=C/[C@H]1CCC(=O)[C@@H]1CCCCCCC(=O)OCC (relative stereo) [Ethyl nat-15S,16S(and ent-15R,16R)-15-hydroxy-9-oxo-15,16-trimethylene-13-trans-prostenoate]",Duration in Minutes of at Least 10% Depression,[5]; dose 1.6 mg/kg,5 min
same,Percent Depression of Mean Arterial Blood Pressure,[5]; dose 1.6 mg/kg,-43%
"CCCC[C@@H]1CCC[C@]1(O)/C=C/[C@H]1CCC(=O)[C@@H]1CCCCCCC(=O)OCC (relative stereo) [Ethyl nat-15R,16R(and ent-15S,16S)-15-hydroxy-9-oxo-15,16-trimethylene-13-trans-prostenoate]",Duration in Minutes of at Least 10% Depression,[5]; dose 4.0 mg/kg,4 min
same,Percent Depression of Mean Arterial Blood Pressure,[5]; dose 4.0 mg/kg,-16%
"CCCCC1CCCC1(O)/C=C/C1CCC(=O)C1CCCCCCC(=O)O [nat-15S,16R(and ent-15R,16S) and nat-15R,16S(and ent-15S,16R)-15-Hydroxy-9-oxo-15,16-trimethylene-13-trans-prostenoic Acid]",Duration in Minutes of at Least 10% Depression,[5]; dose 2.0 mg/kg,4 min
same,Percent Depression of Mean Arterial Blood Pressure,[5]; dose 2.0 mg/kg,-38%
same,ED50,[1],0.32 µg/kg
